Source: article doi:10.1101/2023.06.17.545066v1 (biorxiv, 2023)

B1: EcL-TTD (L-tartrate dehydratase, L-TTDα + L-TTDβ) (Escherichia coli K-12) (protein)
chain 1: MMSESNKQQAVNKLTEIVANFTAMISTRMPDDVVDKLKQLKDAETSSMGKIIYHTMFDNMQKAIDLNRPACQDTGEIMFFVKVGSRFPLLGELQSILKQAVEEATVKAPLRHNAVEIFDEVNTGKNTGSGVPWVTWDIIPDNDDAEIEVYMAGGGCTLPGRSKVLMPSEGYEGVVKFVFENISTLAVNACPPVLVGVGIATSVETAAVLSRKAILRPIGSRHPNPKAAELELRLEEGLNRLGIGPQGLTGNSSVMGVHIESAARHPSTIGVAVSTGCWAHRRGTLLVHADLTFENLSHTRSAL
chain 2: MKKILTTPIKAEDLQDIRVGDVIYLTGTLVTCRDVCHRRLIELKRPIPYDLNGKAIFHAGPIVRKNGDKWEMVSVGPTTSMRMESFEREFIEQTGVKLVVGKGGMGPLTEEGCQKFKALHVIFPAGCAVLAATQVEEIEEVHWTELGMPESLWVCRVKEFGPLIVSIDTHGNNLIAENKKLFAERRDPIVEEICEHVHYIK

Assays:
[1] = molecular target: T1, EcL-TTD (L-tartrate dehydratase, L-TTDα + L-TTDβ) (Escherichia coli, UniProt P05847+P0AC35); test: coupled malate dehydrogenase/NADH assay at […] nm, inhibition kinetics; format: biochemical
T1 sequence (P05847 1-303): B1 chain 1
T1 sequence (P0AC35 1-201): B1 chain 2

[2] = molecular target: T2, MjFH (class-I fumarate hydratase, α + β subunits) (Methanocaldococcus jannaschii, UniProt Q58034+Q58690); test: fumarate formation at […] nm, inhibition kinetics; format: biochemical
T2 sequence (Q58690 1-285): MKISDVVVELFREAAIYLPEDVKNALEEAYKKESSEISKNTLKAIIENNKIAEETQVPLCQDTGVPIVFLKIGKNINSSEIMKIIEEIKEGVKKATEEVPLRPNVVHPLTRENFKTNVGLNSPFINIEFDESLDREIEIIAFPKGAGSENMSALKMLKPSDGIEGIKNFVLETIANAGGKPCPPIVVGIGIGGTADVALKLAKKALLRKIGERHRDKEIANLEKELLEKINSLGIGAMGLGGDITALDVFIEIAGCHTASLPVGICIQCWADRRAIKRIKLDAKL
T2 sequence (Q58034 1-195): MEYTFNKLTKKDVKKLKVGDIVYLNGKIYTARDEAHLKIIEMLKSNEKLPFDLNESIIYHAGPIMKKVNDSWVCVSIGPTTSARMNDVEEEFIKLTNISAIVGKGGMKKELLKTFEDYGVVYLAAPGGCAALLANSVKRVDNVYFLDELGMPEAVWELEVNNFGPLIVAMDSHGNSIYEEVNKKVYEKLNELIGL

purified protein = substrate: O=C(O)C(O)C(O)C(=O)O; test: purified protein; format: biochemical, Escherichia coli; details: 50 mM Tris-HCl pH 7.4, 37 °C, 250 μM NADH, Fe-S reconstituted

Molecule	Ki [1] [µM]	Ki [2] [µM]	Km (purified protein) [µM]
O=C(O)C[C@H](O)C(=O)O [S-malate]	261 ± 29		
O=C(O)C(O)C(O)C(=O)O (stereo not drawn) [meso-tartrate]	149 ± 14	161 ± 17	
B1			190 ± 30
